Source: patent US20130119363A1, “FLUORINE-CONTAINING AROMATIC COMPOUND, ORGANIC SEMICONDUCTOR MATERIAL AND ORGANIC THIN FILM DEVICE” (ASAHI GLASS COMPANY, LIMITED, priority 2010, published 2013)

test: Evaluation of coating properties (orthodichlorobenzene solution, spin coating); format: physicochemical; conditions: one mass % orthodichlorobenzene solution, filtered through a PTFE filter, spin coated on silicon substrate; thin film formed
Description: One mass % of orthodichlorobenzene solution of the fluorine-containing aromatic compound (II) obtained by the synthesis example (1-1) was prepared. The obtained solution was filtered with a PTFE (polytetrafluoroethylene) filter of which thickness was 0.45 μm, and thereafter, it was coated on a silicon substrate by the spin coating. A coating condition was 1500 rotations per minute for 30 seconds. Next, the silicon substrate was placed on the hot plate, and heated at 150° C. for 90 seconds. After that, a film thickness of a compound (II) layer formed on the silicon substrate was measured by using an AFM (atomic force microscope), and it was 70 nm.
One mass % of orthodichlorobenzene solution of the fluorine-containing aromatic compound (12) obtained by the synthesis example (2-1) was prepared. The obtained solution was filtered with the PTFE (polytetrafluoroethylene) filter of which thickness was 0.45 μm, and thereafter, it was coated on the silicon substrate by the spin coating. The coating condition was 1500 rotations per minute for 30 seconds. Next, the silicon substrate was placed on the hot plate, and the heating process was performed at 120° C. for 120 seconds. After that, a film thickness of a compound (12) layer formed on the silicon substrate was measured by using the AFM (atomic force microscope), and it was 80 nm.
One mass % of orthodichlorobenzene solution of the fluorine-containing aromatic compound (13) obtained by the synthesis example (3-1) was prepared. The obtained solution was filtered with the PTFE (polytetrafluoroethylene) filter of which thickness was […], and thereafter, it was coated on the silicon substrate by the spin coating. The coating condition was 1500 rotations per minute for 30 seconds. Next, the silicon substrate was placed on the hot plate, and heated at 120° C. for 120 seconds. After that, a film thickness of a fluorine-containing aromatic compound (13) layer formed on the silicon substrate was measured by using the AFM (atomic force microscope), and it was 90 nm.

Row | solubility for general solvents | Structure (SMILES)
1 | good solubility | CCCCCCOc1c(F)c(F)c(C#Cc2ccc(-c3ccc(-c4ccc(C#Cc5c(F)c(F)c(OCCCCCC)c(F)c5F)s4)s3)s2)c(F)c1F [Compound (13), 5,5″-bis((4-hexyloxytetrafluorophenyl)ethynyl)-2.2°: 5,2″-terthiophene]
2 | good solubility | CCCCCCOc1c(F)c(F)c(C#Cc2ccc3cc(C#Cc4c(F)c(F)c(OCCCCCC)c(F)c4F)ccc3c2)c(F)c1F [Compound (12), 2,6-bis((4-hexyloxytetrafluorophenyl)ethynyl)naphthalene]
3 | good solubility | CCCCCCOc1c(F)c(F)c2c(F)c(C#Cc3ccc4cc(C#Cc5c(F)c(F)c6c(F)c(OCCCCCC)c(F)c(F)c6c5F)ccc4c3)c(F)c(F)c2c1F [Compound (11), 2,6-bis((6-hexyloxyhexafluoronaphthalene-2-yl)ethynyl)naphthalene]
